Laboratory results from ChEMBL document CHEMBL3885861, “Open TG-GATES”.

Species: Rattus norvegicus
Test: Open TG-GATES - Regimen: Daily Repeat
Type: toxicity, organism-based, Sprague-Dawley
Design: regimen Daily Repeat, gender Male, age 6 weeks
Conditions: in vivo, po, route gavage; for APTT / Bas / Eos / Fbg / Hb / Ht / Lym / MCH / MCHC / MCV / Mono / Neu / PT / Plat / RBC / Ret / WBC: tissue Blood; for KIDNEY_L / KIDNEY_R / KIDNEY_TOTAL: tissue Kidney; for LIVER: tissue Liver; for A/G / ALP / ALT / AST / BUN / CRE / Ca / Cl / DBIL / GLC / IP / K / LDH / Na / PL / RALB / TBIL / TC / TG / TP / gamma-GTP: tissue Plasma
[1] = 0 mg/kg, 72 h, dose level Control, time 3 day
[2] = 0 mg/kg, […], dose level Control, time 7 day
[3] = 0 mg/kg, […], dose level Control, time 14 day
[4] = 0 mg/kg, […], dose level Control, time 28 day
[5] = 15 mg/kg, 72 h, dose level Low, time 3 day
[6] = 15 mg/kg, […], dose level Low, time 7 day
[7] = 15 mg/kg, […], dose level Low, time 14 day
[8] = 15 mg/kg, […], dose level Low, time 28 day

CC(C)C(=O)Nc1ccc([N+](=O)[O-])c(C(F)(F)F)c1 [FLUTAMIDE]
TERMINAL_BW [1]: 224.3 g
APTT [1]: 19 s
Bas [1]: 0%
Eos [1]: 1%
Fbg [1]: 219.2 mg/dL
Hb [1]: 13.9 g/dL
Ht [1]: 41.8%
Lym [1]: 79%
MCH [1]: 21.5 pg
MCHC [1]: 33.3%
MCV [1]: 64.6 fL
Mono [1]: 3%
Neu [1]: 16%
PT [1]: 12.4 s
Plat [1]: 122.4 x10_4/uL
RBC [1]: 648 x10_4/ul
Ret [1]: 5.4%
WBC [1]: 82.7 x10_2/uL
KIDNEY_L [1]: 1 g
KIDNEY_R [1]: 1 g
KIDNEY_TOTAL [1]: 2 g
LIVER [1]: 10.4 g
A/G [1]: 1.5
ALP [1]: 1016 IU/L
ALT [1]: 41.6 IU/L
AST [1]: 72.8 IU/L
BUN [1]: 13.6 mg/dL
CRE [1]: 0.4 mg/dL
Ca [1]: 10.5 mg/dL
Cl [1]: 103.8 meq/L
DBIL [1]: 0.09 mg/dL
GLC [1]: 220.2 mg/dL
IP [1]: 7.1 mg/dL
K [1]: 4.1 meq/L
LDH [1]: 204.4 IU/L
Na [1]: 139.8 meq/L
PL [1]: 139 mg/dL
RALB [1]: 3.3 g/dL
TBIL [1]: 0.1 mg/dL
TC [1]: 76.2 mg/dL
TG [1]: 71.8 mg/dL
TP [1]: 5.5 g/dL
gamma-GTP [1]: 0.8 IU/L
TERMINAL_BW [2]: 253 g
TERMINAL_BW [3]: 303.3 g
TERMINAL_BW [4]: 371.7 g
APTT [2]: 19.5 s
Bas [2]: 0%
Eos [2]: 1%
Fbg [2]: 230.6 mg/dL
Hb [2]: 13.8 g/dL
Ht [2]: 40.6%
Lym [2]: 81.6%
MCH [2]: 21.1 pg
MCHC [2]: 33.9%
MCV [2]: 62.3 fL
Mono [2]: 2.4%
Neu [2]: 14.6%
PT [2]: 12.2 s
Plat [2]: 133.9 x10_4/uL
RBC [2]: 652.6 x10_4/ul
Ret [2]: 4.9%
WBC [2]: 141.3 x10_2/uL
APTT [3]: 20.7 s
Bas [3]: 0%
Eos [3]: 0.8%
Fbg [3]: 227 mg/dL
Hb [3]: 14.4 g/dL
Ht [3]: 42.3%
Lym [3]: 80.8%
MCH [3]: 20.8 pg
MCHC [3]: 34.1%
MCV [3]: 60.9 fL
Mono [3]: 2.4%
Neu [3]: 15.2%
PT [3]: 12.2 s
Plat [3]: 128 x10_4/uL
RBC [3]: 695 x10_4/ul
Ret [3]: 4.3%
WBC [3]: 110.8 x10_2/uL
APTT [4]: 19.6 s
Bas [4]: 0%
Eos [4]: 0.8%
Fbg [4]: 229.6 mg/dL
Hb [4]: 15.2 g/dL
Ht [4]: 43.5%
Lym [4]: 82.8%
MCH [4]: 19.9 pg
MCHC [4]: 35%
MCV [4]: 56.8 fL
Mono [4]: 2.2%
Neu [4]: 13.6%
PT [4]: 12.2 s
Plat [4]: 107.9 x10_4/uL
RBC [4]: 765.6 x10_4/ul
Ret [4]: 2.3%
WBC [4]: 122 x10_2/uL
KIDNEY_L [2]: 1.1 g
KIDNEY_R [2]: 1.1 g
KIDNEY_TOTAL [2]: 2.2 g
KIDNEY_L [3]: 1.2 g
KIDNEY_R [3]: 1.2 g
KIDNEY_TOTAL [3]: 2.5 g
KIDNEY_L [4]: 1.3 g
KIDNEY_R [4]: 1.3 g
KIDNEY_TOTAL [4]: 2.7 g
LIVER [2]: 11.7 g
LIVER [3]: 13.4 g
LIVER [4]: 15 g
A/G [2]: 1.6
ALP [2]: 743.8 IU/L
ALT [2]: 35.2 IU/L
AST [2]: 61.6 IU/L
BUN [2]: 15.6 mg/dL
CRE [2]: 0.4 mg/dL
Ca [2]: 10.7 mg/dL
Cl [2]: 103.4 meq/L
DBIL [2]: 0.09 mg/dL
GLC [2]: 214.8 mg/dL
IP [2]: 6.8 mg/dL
K [2]: 3.7 meq/L
LDH [2]: 167.2 IU/L
Na [2]: 141 meq/L
PL [2]: 140.4 mg/dL
RALB [2]: 3.6 g/dL
TBIL [2]: 0.2 mg/dL
TC [2]: 72.6 mg/dL
TG [2]: 82.6 mg/dL
TP [2]: 5.8 g/dL
gamma-GTP [2]: 1.2 IU/L
A/G [3]: 1.5
ALP [3]: 842.2 IU/L
ALT [3]: 35 IU/L
AST [3]: 61.8 IU/L
BUN [3]: 14.4 mg/dL
CRE [3]: 0.4 mg/dL
Ca [3]: 10.6 mg/dL
Cl [3]: 103.2 meq/L
DBIL [3]: 0.096 mg/dL
GLC [3]: 202.2 mg/dL
IP [3]: 6.8 mg/dL
K [3]: 3.8 meq/L
LDH [3]: 150 IU/L
Na [3]: 141.2 meq/L
PL [3]: 133.4 mg/dL
RALB [3]: 3.5 g/dL
TBIL [3]: 0.2 mg/dL
TC [3]: 67 mg/dL
TG [3]: 100.4 mg/dL
TP [3]: 5.8 g/dL
gamma-GTP [3]: 0.8 IU/L
A/G [4]: 1.4
ALP [4]: 578 IU/L
ALT [4]: 32 IU/L
AST [4]: 50 IU/L
BUN [4]: 15.8 mg/dL
CRE [4]: 0.5 mg/dL
Ca [4]: 10.3 mg/dL
Cl [4]: 104.6 meq/L
DBIL [4]: 0.072 mg/dL
GLC [4]: 226.2 mg/dL
IP [4]: 7 mg/dL
K [4]: 3.8 meq/L
LDH [4]: 121.6 IU/L
Na [4]: 140.8 meq/L
PL [4]: 130.2 mg/dL
RALB [4]: 3.5 g/dL
TBIL [4]: 0.1 mg/dL
TC [4]: 70.4 mg/dL
TG [4]: 60.8 mg/dL
TP [4]: 6 g/dL
gamma-GTP [4]: 0.8 IU/L
TERMINAL_BW [5]: 223.1 g
APTT [5]: 18.7 s
Bas [5]: 0%
Eos [5]: 1%
Fbg [5]: 224.2 mg/dL
Hb [5]: 14 g/dL
Ht [5]: 41.8%
Lym [5]: 75.2%
MCH [5]: 21.6 pg
MCHC [5]: 33.6%
MCV [5]: 64.4 fL
Mono [5]: 3.2%
Neu [5]: 19.4%
PT [5]: 12.3 s
Plat [5]: 119.4 x10_4/uL
RBC [5]: 649.4 x10_4/ul
Ret [5]: 5.7%
WBC [5]: 84.8 x10_2/uL
KIDNEY_L [5]: 1 g
KIDNEY_R [5]: 1 g
KIDNEY_TOTAL [5]: 1.9 g
LIVER [5]: 11.2 g
A/G [5]: 1.8
ALP [5]: 847 IU/L
ALT [5]: 40 IU/L
AST [5]: 66.8 IU/L
BUN [5]: 14.4 mg/dL
CRE [5]: 0.4 mg/dL
Ca [5]: 10.9 mg/dL
Cl [5]: 104.2 meq/L
DBIL [5]: 0.1 mg/dL
GLC [5]: 216.8 mg/dL
IP [5]: 7.1 mg/dL
K [5]: 3.9 meq/L
LDH [5]: 177.6 IU/L
Na [5]: 140.8 meq/L
PL [5]: 157.4 mg/dL
RALB [5]: 3.6 g/dL
TBIL [5]: 0.2 mg/dL
TC [5]: 86.6 mg/dL
TG [5]: 86.2 mg/dL
TP [5]: 5.6 g/dL
gamma-GTP [5]: 1.2 IU/L
TERMINAL_BW [6]: 248.2 g
TERMINAL_BW [7]: 294.4 g
TERMINAL_BW [8]: 340.6 g
APTT [6]: 19.1 s
Bas [6]: 0%
Eos [6]: 1%
Fbg [6]: 217.8 mg/dL
Hb [6]: 13.6 g/dL
Ht [6]: 40.3%
Lym [6]: 84.6%
MCH [6]: 20.8 pg
MCHC [6]: 33.7%
MCV [6]: 61.6 fL
Mono [6]: 2%
Neu [6]: 12.2%
PT [6]: 12.3 s
Plat [6]: 124.4 x10_4/uL
RBC [6]: 654.8 x10_4/ul
Ret [6]: 4.6%
WBC [6]: 149.8 x10_2/uL
APTT [7]: 20.6 s
Bas [7]: 0%
Eos [7]: 0.6%
Fbg [7]: 228.4 mg/dL
Hb [7]: 14.3 g/dL
Ht [7]: 41.8%
Lym [7]: 82.4%
MCH [7]: 20.9 pg
MCHC [7]: 34.2%
MCV [7]: 61.1 fL
Mono [7]: 2.4%
Neu [7]: 13.4%
PT [7]: 12.3 s
Plat [7]: 104.8 x10_4/uL
RBC [7]: 684.6 x10_4/ul
Ret [7]: 3.8%
WBC [7]: 112.5 x10_2/uL
APTT [8]: 19.6 s
Bas [8]: 0%
Eos [8]: 1.2%
Fbg [8]: 229.2 mg/dL
Hb [8]: 15.1 g/dL
Ht [8]: 42.7%
Lym [8]: 82%
MCH [8]: 20 pg
MCHC [8]: 35.4%
MCV [8]: 56.4 fL
Mono [8]: 2.2%
Neu [8]: 13.6%
PT [8]: 12.4 s
Plat [8]: 106.7 x10_4/uL
RBC [8]: 758.8 x10_4/ul
Ret [8]: 2.1%
WBC [8]: 99.2 x10_2/uL
KIDNEY_L [6]: 1.1 g
KIDNEY_R [6]: 1.1 g
KIDNEY_TOTAL [6]: 2.1 g
KIDNEY_L [7]: 1.2 g
KIDNEY_R [7]: 1.2 g
KIDNEY_TOTAL [7]: 2.3 g
KIDNEY_L [8]: 1.3 g
KIDNEY_R [8]: 1.2 g
KIDNEY_TOTAL [8]: 2.5 g
LIVER [6]: 12.1 g
LIVER [7]: 13.5 g
LIVER [8]: 13.8 g
A/G [6]: 1.5
ALP [6]: 979.6 IU/L
ALT [6]: 37.6 IU/L
AST [6]: 62.6 IU/L
BUN [6]: 15.8 mg/dL
CRE [6]: 0.5 mg/dL
Ca [6]: 10.7 mg/dL
Cl [6]: 104.2 meq/L
DBIL [6]: 0.088 mg/dL
GLC [6]: 214.2 mg/dL
IP [6]: 7.4 mg/dL
K [6]: 4.1 meq/L
LDH [6]: 195.6 IU/L
Na [6]: 140.6 meq/L
PL [6]: 145 mg/dL
RALB [6]: 3.5 g/dL
TBIL [6]: 0.1 mg/dL
TC [6]: 74.2 mg/dL
TG [6]: 83.2 mg/dL
TP [6]: 5.8 g/dL
gamma-GTP [6]: 1.2 IU/L
A/G [7]: 1.5
ALP [7]: 728 IU/L
ALT [7]: 33.4 IU/L
AST [7]: 57.2 IU/L
BUN [7]: 12.8 mg/dL
CRE [7]: 0.5 mg/dL
Ca [7]: 10.7 mg/dL
Cl [7]: 104 meq/L
DBIL [7]: 0.09 mg/dL
GLC [7]: 200.4 mg/dL
IP [7]: 6.3 mg/dL
K [7]: 3.9 meq/L
LDH [7]: 137.8 IU/L
Na [7]: 141.2 meq/L
PL [7]: 149 mg/dL
RALB [7]: 3.4 g/dL
TBIL [7]: 0.1 mg/dL
TC [7]: 77.6 mg/dL
TG [7]: 96.4 mg/dL
TP [7]: 5.7 g/dL
gamma-GTP [7]: 0.6 IU/L
A/G [8]: 1.4
ALP [8]: 460.2 IU/L
ALT [8]: 34 IU/L
AST [8]: 54.4 IU/L
BUN [8]: 16.8 mg/dL
CRE [8]: 0.5 mg/dL
Ca [8]: 10.3 mg/dL
Cl [8]: 103.6 meq/L
DBIL [8]: 0.07 mg/dL
GLC [8]: 226.2 mg/dL
IP [8]: 6.1 mg/dL
K [8]: 3.4 meq/L
LDH [8]: 126.8 IU/L
Na [8]: 141.4 meq/L
PL [8]: 147 mg/dL
RALB [8]: 3.6 g/dL
TBIL [8]: 0.1 mg/dL
TC [8]: 83.4 mg/dL
TG [8]: 51.2 mg/dL
TP [8]: 6.2 g/dL
gamma-GTP [8]: 0.4 IU/L
